Results from PMC6177011, “Idebenone and coenzyme Q10 are novel PPARα/γ ligands, with potential for treatment of fatty liver diseases” (Disease Models & Mechanisms, 2018).
Each block holds one compound with its values, some of them ahead of it.

What was measured:
Format in all cases: cell-based
[1] = molecular target: T1, hPPARδ/β (Homo sapiens, UniProt Q03181); assay: GAL4-LBD UAS-luciferase reporter in HEK293
T1 construct: gene PPARD; GAL4-hPPARδ LBD fusion
T1 sequence (Q03181 171-441 limits assumed): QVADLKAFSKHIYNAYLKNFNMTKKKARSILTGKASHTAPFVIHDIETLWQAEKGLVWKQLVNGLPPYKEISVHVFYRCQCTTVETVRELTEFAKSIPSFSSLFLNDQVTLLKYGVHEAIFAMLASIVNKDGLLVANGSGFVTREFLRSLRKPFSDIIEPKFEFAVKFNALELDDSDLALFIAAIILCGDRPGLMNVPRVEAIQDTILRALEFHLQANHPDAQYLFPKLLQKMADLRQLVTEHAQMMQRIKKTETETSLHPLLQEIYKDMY

[2] = molecular target: T2, PPARα (Homo sapiens, UniProt Q07869); assay: co-purification with purified LBD and LC-MS; EC50 from GAL4-LBD luciferase reporter in HEK293
T2 construct: gene PPARA; His-tagged PPARα LBD
T2 sequence (Q07869 196-468 limits assumed): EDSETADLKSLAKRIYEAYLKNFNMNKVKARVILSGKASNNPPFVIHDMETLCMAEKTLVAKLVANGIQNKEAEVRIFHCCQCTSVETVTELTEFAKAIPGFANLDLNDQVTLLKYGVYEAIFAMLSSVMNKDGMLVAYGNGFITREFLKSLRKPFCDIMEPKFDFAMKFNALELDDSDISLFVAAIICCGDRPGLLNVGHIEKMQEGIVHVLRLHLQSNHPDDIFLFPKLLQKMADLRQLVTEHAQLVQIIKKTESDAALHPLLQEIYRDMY

[3] = molecular target: T3, PPARγ (Homo sapiens, UniProt P37231); assay: antagonism of the human PPARγ LBD ligand-trap GFP reporter in transgenic zebrafish
T3 construct: gene PPARG; PPARγ (aa 189-477) LBD fusion
T3 sequence (P37231 217-505): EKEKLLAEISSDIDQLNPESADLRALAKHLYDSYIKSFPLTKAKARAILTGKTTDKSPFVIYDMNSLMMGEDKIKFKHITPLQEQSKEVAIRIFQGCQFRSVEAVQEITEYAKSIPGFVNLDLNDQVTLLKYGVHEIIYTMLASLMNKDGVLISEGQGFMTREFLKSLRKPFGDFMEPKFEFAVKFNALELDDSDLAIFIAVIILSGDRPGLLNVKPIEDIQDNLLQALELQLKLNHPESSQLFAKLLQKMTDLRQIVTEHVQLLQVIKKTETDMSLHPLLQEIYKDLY

SMILES: O=C(O)COc1ccc(SCC=C(c2ccc(Br)cc2)c2ccc(Br)cc2)cc1Cl [CAY10592]
EC50 [1]: 12.8 nM

EC50 [2]: 2500 nM
SMILES: COC1=C(OC)C(=O)C(CCCCCCCCCCO)=C(C)C1=O [idebenone]

SMILES: O=C(Nc1ccccc1)c1cc([N+](=O)[O-])ccc1Cl [GW9662]
antagonism of the human PPARγ LBD ligand-trap GFP reporter in transgenic zebrafi [3]: The GW9662 suicide antagonist blocks agonist activity of rosiglitazone and idebenone, but not of RA
